This is an account of results in patent EP0325762B1, “Macrocyclic chelating agents and chelates thereof” (BRACCO S.p.A., priority 1987, dated 1989).

The structures appear in SMILES notation.

One data set deals with mouse. Put plainly: Determination of LD50 in the mouse by intravenous administration. The class given is in vivo. As to conditions: male and female mice, Strain: Crl:CDl(ICR)BR, range in parentheses. From the text: Determination of LD₅₀ in the mouse by intravenous administration of the compounds of the present invention. In table II are reported, as non-limiting examples, the LD₅₀ values for compounds A and B of the present invention, in comparison with GdCl₃ and with Gd/DTPA neutralized with N-methylglucamine.

Data set [1] can be described thus: Determination of relaxivity (longitudinal R1 by Inversion Recovery, transverse R2 by Carr-Purcell-Meiboom-Gill sequence, MINISPEC PC 120 BRUKER). The class given is physicochemical. To be noted: 20 MHz (proton), 39°C, pH 7.3, 0 to 5 mM, water; for R₁: longitudinal relaxivity; for R₂: transverse relaxivity. The method, then:
Determination of the relaxivity of the compounds of the present invention.
Longitudinal relaxivity (R₁) measurements were calculated using the "Inversion Recovery" sequence with an 8 point minimum and a 3 parameter fit, according to the program provided for the MINISPEC […] BRUKER instrument, by which measurements were taken.
Transverse relaxivity (R₂) measurements were calculated using the sequence of Carr, Purcell, Meiboom and Gill, according to the program provided for the MINISPEC 120 BRUKER instrument, by means of which measurements were taken, adjusting the apparatus in such a way as to observe the decay of the signal to about 1/3 of the starting value, with a score number higher or equal to 10 and a 2 parameter fit.
In table I, R₁ and R ₂ values calculated for compounds A and B in comparison with Gd/DTPA neutralized with N-methylglucamine, are reported as non-limiting examples.

For the molecule `C[NH2+]C[C@H](O)[C@@H](O)[C@H](O)[C@H](O)CO.O=C([O-])CN1CCN(CC(=O)[O-])CCN(C(COCc2ccccc2)C(=O)[O-])CCN(CC(=O)[O-])CC1.[Gd+3]` (stereo not shown) [A, Gd^(3+)/2-[1,4,7,10-tetraaza-4,7,10-tri(carboxymethyl)-cyclododecane-1-yl]-3-benzyloxypropionic acid, neutralized with N-methylglucamine], the “LD₅₀ in the mouse* in mmol/kg - intravenous” value (“LD₅₀ in the mouse* in mmol/kg” for short) in the data set with mouse is listed as 8.8 (7.79 - 9.94) mmol/kg. In data set [1] (solvent 0.154 M NaCl (0.9%)), this molecule yielded a R₁ of 4.15 ± 0.01 mM/s and a R₂ of 5.67 ± 0.02 mM/s.

With `C[NH2+]C[C@H](O)[C@@H](O)[C@H](O)[C@H](O)CO.O=C([O-])CN1CCN(CC(=O)[O-])CCN(C(CO)C(=O)[O-])CCN(CC(=O)[O-])CC1.[Gd+3]` (stereo not shown) [B, Gd^(3+)/2-[1,4,7,10-tetraaza-4,7,10-tri(carboxymethyl)-cyclododecane-1-yl]-3-hydroxypropionic acid, neutralized with N-methylglucamine], the “LD₅₀ in the mouse* in mmol/kg” value with mouse was 13.1 (12.2 - 14.1) mmol/kg. For the same molecule, in data set [1] (solvent 0.154 M NaCl (0.9%)), the R₁ worked out at 3.72 ± 0.01 mM/s and the R₂ is 5.06 ± 0.01 mM/s.

For the molecule `CNC[C@H](O)[C@@H](O)[C@H](O)[C@H](O)CO.CNC[C@H](O)[C@@H](O)[C@H](O)[C@H](O)CO.O=C([O-])CN(CCN(CC(=O)[O-])CC(=O)O)CCN(CC(=O)[O-])CC(=O)O.[Gd+3]` [Gd/DTPA, reference compound], the “LD₅₀ in the mouse* in mmol/kg” value in the data set with mouse was 4.8 (4.47 - 5.16) mmol/kg. Further, in data set [1] (solvent 0.154 M (0.9%)), the R₁ came to 4.08 ± 0.01 mM/s and the R₂ was 5.15 ± 0.02 mM/s.

In the case of `[Cl][Gd]([Cl])[Cl]` [GdCl₃, reference compound], the “LD₅₀ in the mouse* in mmol/kg” value in the data set on mouse is listed as 0.28 (0.24 - 0.32) mmol/kg.
